Data published in US4410548A, “Propanolamine derivatives” (Reckitt & Colman Products Limited, priority 1980, dated 1983).
Counter-ions that a name gives are not always drawn. Like-named read-outs stand apart in the source and are kept apart here.

What was measured:
DOCA hypertensive rats [1] = assay: antihypertensive activity (mean arterial blood pressure) after oral administration in DOCA hypertensive rats; assay type: in vivo, rat; settings: for MABP, maximum percent changes: Table 2 (in brackets); for MABP, summation of percent changes: Table 2; for maximal percent changes in MABP: DOCA rats
Method: (b) DOCA = Desoxycorticosterone acetate.
(c) MABP = Mean arterial blood pressure. Negative values represent falls
in blood pressure and conversely positive values increases in blood
pressure. The values of maximum percent changes are mean values taken fro
groups of 5-7 DOCA hypertensive rats.
(d) Values in the final column represent duration of action of the
relative increases and decreases in blood pressure with the respective
treatments. Group mean percent changes are added together for the times o
1, 2, 3 and 5 hours after oral dosage. […]
Values in the final column are summation of percent changes with, in
brackets the maximum percent changes.

β-adrenoreceptor = target: T1, β-adrenoreceptor (Cavia porcellus, UniProt H0W3H1); assay: antagonism of positive chronotropic responses to (-)-isoprenaline in isolated guinea-pig right atria; assay type: cell-based; settings: for times (±)-propranolol was more potent as an antagonist than the compound / times less active than (±)-propranolol: β-adrenoreceptor antagonism in vitro
T1 construct: isolated guinea-pig right atria; from tissue; host or cells: isolated guinea-pig right atria
T1 sequence (H0W3H1 1-470): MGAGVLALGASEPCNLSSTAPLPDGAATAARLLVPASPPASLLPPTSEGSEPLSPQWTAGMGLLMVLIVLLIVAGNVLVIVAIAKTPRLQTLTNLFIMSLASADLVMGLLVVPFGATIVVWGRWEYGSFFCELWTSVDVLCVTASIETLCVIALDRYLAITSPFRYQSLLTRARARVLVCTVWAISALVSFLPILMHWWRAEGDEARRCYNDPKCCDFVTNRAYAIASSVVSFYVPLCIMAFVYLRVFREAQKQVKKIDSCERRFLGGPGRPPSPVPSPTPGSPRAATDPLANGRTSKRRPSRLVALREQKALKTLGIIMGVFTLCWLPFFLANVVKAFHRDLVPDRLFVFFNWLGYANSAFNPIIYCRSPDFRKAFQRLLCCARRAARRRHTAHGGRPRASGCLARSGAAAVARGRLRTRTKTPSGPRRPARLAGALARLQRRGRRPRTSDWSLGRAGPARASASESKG
Description: Tolamolol is the approved name for 1-[2-(4-carbamoylphenoxy)ethylamino]-3-(2-methylphenoxy)propan-2-ol.
The values in this table are the mean of 4-8

DOCA hypertensive rats [2] = assay: heart rate in DOCA hypertensive rats after oral administration; settings: both doses (5 and 50 mg/kg)
DOCA hypertensive rats [3] = assay: toxicity / deaths seen in the antihypertensive test in DOCA rats; assay type: in vivo, rat; settings: oral dose 100 mg/kg
Description: (d) With Example B in the antihypertensive test at an oral dose of 100

[4] = oral dose 50 mg/kg, mean of groups of 5-7, negative = fall
[5] = oral dose 50 mg/kg, MABP, sum of 1, 2, 3 and 5 hours after dosage
[6] = oral dose 100 mg/kg, mean of groups of 5-7, negative = fall
[7] = oral dose 100 mg/kg, MABP, sum of 1, 2, 3 and 5 hours after dosage
[8] = Table 1, isolated guinea-pig atria, mean of 4-8 experiments, read-out: pA2 value against chronotropic responses of isoprenaline (converted)
[9] = Table 2, isolated guinea-pig atria vs isoprenaline, read-out: β-Antag. pA2 (converted)

Question: What does the source list for `COc1cc([S+](C)[O-])c(C)cc1OCCNCC(O)COc1ccccc1C.O=C(O)C(=O)O` (stereo not shown) [Example 1, 1-[2-(2-Methoxy-5-methyl-4-methylsulphinylphenoxy)ethylamino]-3-(2-methylphenoxy)propan-2-ol oxalate salt]?
Answer: MABP, maximum percent changes (DOCA hypertensive rats [1]; oral dose 100 mg/kg): -47%; MABP, summation of percent changes (DOCA hypertensive rats [1]; oral dose 100 mg/kg): -170%; maximal percent changes in MABP (DOCA hypertensive rats [1]; [4]): -37%; Summation of percent changes (DOCA hypertensive rats [1]; [5]): -137%; maximal percent changes in MABP (DOCA hypertensive rats [1]; [6]): -47%; Summation of percent changes (DOCA hypertensive rats [1]; [7]): -170%; Kb (β-adrenoreceptor; [8]): 380 nM; times (±)-propranolol was more potent as an antagonist than the compound (β-adrenoreceptor): ~20 times

Question: For `COc1cc([S+](C)[O-])c(OC)cc1OCCNCC(O)COc1ccccc1C.O=C(O)C(=O)O` (stereo not shown) [Example 10, 1-[2-(2,5-Dimethoxy-4-methylsulphinylphenoxy)ethylamino]-3-(2-methylphenoxy)propan-2-ol oxalate salt], which “maximal percent changes in MABP” value (DOCA hypertensive rats [1]; [6]) is on record?
Answer: Its value is -36%.

Question: And the “Summation of percent changes” value (DOCA hypertensive rats [1]; [7])?
Answer: The value was -131%.

Question: And the Kb (β-adrenoreceptor; [8])?
Answer: The Kb was 29.5 nM.

Question: And the “times less active than (±)-propranolol” value (β-adrenoreceptor)?
Answer: The value was 1.5 times.

Question: How did the “MABP, maximum percent changes” value (DOCA hypertensive rats [1]; oral dose 100 mg/kg) turn out when `COc1cc([S+](C)[O-])c(C)cc1OCCNCC(O)COc1ccc(C)cc1` (stereo not shown) [D] was run?
Answer: The value was -23%.

Question: And the “MABP, summation of percent changes” value (DOCA hypertensive rats [1]; oral dose 100 mg/kg)?
Answer: Its value is -82%.

Question: What about the Kb (β-adrenoreceptor; [9]) of the same compound?
Answer: Its Kb is 1170 nM.

Question: What does the source list for `Cc1ccccc1OCC(O)CNCCOc1ccc(C(N)=O)cc1` (racemic) [(±)-Tolamolol, 1-[2-(4-carbamoylphenoxy)ethylamino]-3-(2-methylphenoxy)propan-2-ol]?
Answer: maximal percent changes in MABP (DOCA hypertensive rats [1]; [4]): -20%; Summation of percent changes (DOCA hypertensive rats [1]; [5]): -47%; maximal percent changes in MABP (DOCA hypertensive rats [1]; [6]): -30%; Summation of percent changes (DOCA hypertensive rats [1]; [7]): -88%; duration of blood pressure effect versus bradycardia (DOCA hypertensive rats [1]; oral, (±)-tolamolol): of a shorter duration than the bradycardia; effect on blood pressure (DOCA hypertensive rats [1]; oral, (±)-tolamolol): falls in blood pressure which were relatively transient; Kb (β-adrenoreceptor; [8]): 17 nM; relative potency as β-adrenoreceptor antagonist (β-adrenoreceptor; in vitro, among the compounds of Table 1): most potent β-adrenoreceptor antagonists tested in vitro

Question: Which results are given for `COc1cc(S(C)(=O)=O)c(C)cc1OCCNCC(O)COc1ccccc1.O=C(O)C(=O)O` (stereo not shown) [Example 6, 1-[2-(2-Methoxy-5-methyl-4-methylsulphonylphenoxy)ethylamino]-3-phenoxypropan-2-ol oxalate salt]?
Answer: maximal percent changes in MABP (DOCA hypertensive rats [1]; [6]): -35%; Summation of percent changes (DOCA hypertensive rats [1]; [7]): -127%; Kb (β-adrenoreceptor; [8]): 191 nM; times (±)-propranolol was more potent as an antagonist than the compound (β-adrenoreceptor): approximately 10 times

Question: Which “MABP, maximum percent changes” value (DOCA hypertensive rats [1]; oral dose 100 mg/kg) does the source give for `COc1cc(C)c([S+](C)[O-])cc1OCCNCC(O)COc1ccccc1C` (stereo not shown) [A] here?
Answer: Its value is -37%.

Question: And the “MABP, summation of percent changes” value (DOCA hypertensive rats [1]; oral dose 100 mg/kg)?
Answer: Its value is -127%.

Question: What about the Kb (β-adrenoreceptor; [9]) of the same compound?
Answer: The Kb was 3160 nM.

Question: What does the source list for `COc1cc2c(cc1OCCNCC(O)COc1ccccc1C)CCCC[S+]2[O-]` (stereo not shown) [Example 8, 1-[2-(8-Methoxy-2,3,4,5-tetrahydro-1-benzothiepin-7-oxy)ethylamino]-3-(2-methylphenoxy)propan-2-ol S-oxide oxalate salt]?
Answer: maximal percent changes in MABP (DOCA hypertensive rats [1]; [6]): -43%; Summation of percent changes (DOCA hypertensive rats [1]; [7]): -161%; Kb (β-adrenoreceptor; [8]): 28.8 nM; times less active than (±)-propranolol (β-adrenoreceptor): 1.5 times

Question: Which “MABP, maximum percent changes” value (DOCA hypertensive rats [1]; oral dose 100 mg/kg) does the source give for `COc1cc([S+](C)[O-])c(C)cc1OCCNCC(O)COc1cccc(C)c1` (stereo not shown) [C] here?
Answer: Its value is -8%.

Question: And the “MABP, summation of percent changes” value (DOCA hypertensive rats [1]; oral dose 100 mg/kg)?
Answer: Its value is -23%.

Question: What about the “pD'2” value (β-adrenoreceptor; Table 2, in pA2 column, negative log molar concentration depressing maximum agonist response by 50%, noncompetitive) of the same compound?
Answer: Its value is 4.3.

Question: What about the “nature of interaction with isoprenaline” value (β-adrenoreceptor; adrenoreceptor antagonism test) of the same compound?
Answer: Its value is “noncompetitive in nature”.

Question: `CC(C)NCC(O)COc1cccc2ccccc12` (racemic) [(±)-Propranolol] was tested. Which “effect on blood pressure” value (DOCA hypertensive rats [1]; 50 mg/kg, p.o.) did it give?
Answer: Its value is “long-lasting increase in blood pressure”.

Question: And the “maximal percent changes in MABP” value (DOCA hypertensive rats [1]; oral dose 5 mg/kg, fall, group mean)?
Answer: Its value is -5%.

Question: And the “Summation of percent changes” value (DOCA hypertensive rats [1]; oral dose 5 mg/kg, fall, sum of 1, 2, 3 and 5 hours)?
Answer: Its value is -6%.

Question: And the “maximal percent changes in MABP” value (DOCA hypertensive rats [1]; oral dose 5 mg/kg, increase, group mean)?
Answer: Its value is “+10%”.

Question: What about the “Summation of percent changes” value (DOCA hypertensive rats [1]; oral dose 5 mg/kg, increase, sum of 1, 2, 3 and 5 hours) of the same compound?
Answer: Its value is “+15%”.

Question: And the “maximal percent changes in MABP” value (DOCA hypertensive rats [1]; [4])?
Answer: The value was “+11%”.

Question: What about the “Summation of percent changes” value (DOCA hypertensive rats [1]; [5]) of the same compound?
Answer: The value was “+38%”.

Question: And the “effect on mean blood pressure” value (DOCA hypertensive rats [1]; oral, 5.0 mg/kg)?
Answer: Its value is “small increase in mean blood pressure followed by a non-significant transient fall”.

Question: And the “effect on heart rate” value (DOCA hypertensive rats [2])?
Answer: Its value is “decreased heart rate”.

Question: Which “toxicity (MABP column)” value (DOCA hypertensive rats [3]; Table 2) does the source give for `COc1ccc(OCCNCC(O)COc2ccccc2C)c([S+](C)[O-])c1` (stereo not shown) [Example B] here?
Answer: Its value is “toxic”.

Question: And the “deaths of test rats” value (DOCA hypertensive rats [3]; antihypertensive test)?
Answer: The value was 5 of the 6 test rats died.
